The supplement of paper PMC11208160

Test: recombinant UMI read abundance after kanamycin selection (control-corrected) (log10(CPM+1)); higher = more efficient recombination; extreme values may be limits of the assay; sequences stand for … in AGTGCAGAGAAAATCGGCCAGTTTTCTCTGCCTGCAGTCCGCATGCCGTGGGACCCCTTGGGTTCTAACCTGTTGCCTAGATTTATGCAGCGGACTGCCTTTCTCCCAAAGTGATAAACCGG…AGGTTGGTTTCACT; site = the 11-nt donor
Outline: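 Reported values are log10(CPM+1) from a pooled Escherichia coli screen of donor and donor-binding-loop pairs for the IS621 bridge recombinase. Selection used IPTG (0.07 mM) plus kanamycin, against unselected plating, each in two replicates. Recombinant UMIs were amplified across the donor–target junction, sequenced, converted to CPM, averaged over replicates and scaled by control-derived factors.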
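Further: IS621 bridge recombinase in Escherichia coli cells against a fixed T5 target plasmid.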

Sequence	recombinant UMI read abundance (log10)
ATAGGGCCATGGACCGGTTTTCCCGGTAATCCGTATTTGAC (site ATACGGCCTGT)	0
ATAGGGCCATGGACCGGTTTTCCCGGTAATCCGTATTTGAC (site ATAGGGCCTGT)	0
ATAGGGCCATGGACCGGTTTTCCCGGTAATCCGTATTTGAC (site ATATGGCCTGT)	0
ATAGGTCCATGGACCGGTTTTCCCGGTAATCCGTATTTGTT (site ATAGGTCCTAA)	0.95
ATAGGTGCATGGACCGGTTTTCCCGGTAATCCGTATTTGTC (site ATAGGTGCTGA)	2.7
ATAGTTCCATGGACCGGTTTTCCCGGTAATCCGTATTTGGA (site ATAGTTCCTTC)	0.223
ATATATACATGGACCGGTTTTCCCGGTAATCCGTATTTGAC (site ATATATACTGT)	2.65
ATATATACATGGACCGGTTTTCCCGGTAATCCGTATTTGAC (site ATCTATACTGT)	0.727
ATATATACATGGACCGGTTTTCCCGGTAATCCGTATTTGAC (site ATGTATACTGT)	1.62
ATATATACATGGACCGGTTTTCCCGGTAATCCGTATTTGAC (site ATTTATACTGT)	0.227
ATATCAACATGGACCGGTTTTCCCGGTAATCCGTATTTGTA (site ATATCAACTTA)	1.61
ATATGAACATGGACCGGTTTTCCCGGTAATCCGTATTTGAC (site ATATGAACTGT)	2.9
ATATTTGCATGGACCGGTTTTCCCGGTAATCCGTATTTGAC (site ATATTTGCTGT)	2.1
ATCACACCATGGACCGGTTTTCCCGGTAATCCGTATTTGTC (site ATCACACCTGA)	0
ATCACAGCATGGACCGGTTTTCCCGGTAATCCGTATTTGGG (site ATCACAGCTCC)	0.00407
ATCACCTCATGGACCGGTTTTCCCGGTAATCCGTATTTGCT (site ATCACCTCTAG)	2.75
ATCCAAACATGGACCGGTTTTCCCGGTAATCCGTATTTGAG (site ATCCAAACTCT)	1.6
ATCCAAACATGGACCGGTTTTCCCGGTAATCCGTATTTGAG (site ATCCAACCTCT)	0.01
ATCCAAACATGGACCGGTTTTCCCGGTAATCCGTATTTGAG (site ATCCAAGCTCT)	0.432
ATCCAAACATGGACCGGTTTTCCCGGTAATCCGTATTTGAG (site ATCCAATCTCT)	0.352
ATCCAACCATGGACCGGTTTTCCCGGTAATCCGTATTTGAG (site ATCCAAACTCT)	0.0118
ATCCAACCATGGACCGGTTTTCCCGGTAATCCGTATTTGAG (site ATCCAACCTCT)	0
ATCCAACCATGGACCGGTTTTCCCGGTAATCCGTATTTGAG (site ATCCAAGCTCT)	0.133
ATCCAACCATGGACCGGTTTTCCCGGTAATCCGTATTTGAG (site ATCCAATCTCT)	0.257
ATCCAGGCATGGACCGGTTTTCCCGGTAATCCGTATTTGTG (site ATCCAGGCTCA)	0.328

Sequence	recombinant UMI read abundance (log10)
ATCCCGGCATGGACCGGTTTTCCCGGTAATCCGTATTTGGG (site ATCCCGGCTCC)	0.00576
ATCCCTACATGGACCGGTTTTCCCGGTAATCCGTATTTGCA (site ATCCCTACTTG)	1.81
ATCCCTGCATGGACCGGTTTTCCCGGTAATCCGTATTTGTG (site ATCCCTGCTCA)	0.13
ATCCCTTCATGGACCGGTTTTCCCGGTAATCCGTATTTGTG (site ATCCCTTCTCA)	0.0697
ATCCGTCCATGGACCGGTTTTCCCGGTAATCCGTATTTGAC (site ATCCGTCCTGT)	0.00623
ATCCGTCCATGGACCGGTTTTCCCGGTAATCCGTATTTGAT (site AACCGTCCTAT)	0.00762
ATCCGTCCATGGACCGGTTTTCCCGGTAATCCGTATTTGAT (site ACCCGTCCTAT)	0.0678
ATCCGTCCATGGACCGGTTTTCCCGGTAATCCGTATTTGAT (site AGCCGTCCTAT)	0.00385
ATCCGTCCATGGACCGGTTTTCCCGGTAATCCGTATTTGAT (site ATCCGTCCTAT)	0.0236
ATCCTGACATGGACCGGTTTTCCCGGTAATCCGTATTTGAA (site ATCCTGACTTT)	0.419
ATCCTGGCATGGACCGGTTTTCCCGGTAATCCGTATTTGAA (site ATCCTGGCTTT)	1.24
ATCGAAGCATGGACCGGTTTTCCCGGTAATCCGTATTTGAG (site ATCAAAGCTCT)	2.12
ATCGAAGCATGGACCGGTTTTCCCGGTAATCCGTATTTGAG (site ATCCAAGCTCT)	0.355
ATCGAAGCATGGACCGGTTTTCCCGGTAATCCGTATTTGAG (site ATCGAAGCTCT)	2.1
ATCGAAGCATGGACCGGTTTTCCCGGTAATCCGTATTTGAG (site ATCTAAGCTCT)	0.58
ATCGACTCATGGACCGGTTTTCCCGGTAATCCGTATTTGAG (site ATCGACTCTCT)	1.67
ATCGAGTCATGGACCGGTTTTCCCGGTAATCCGTATTTGTA (site ATCGAGTCTTA)	3.05
ATCGATTCATGGACCGGTTTTCCCGGTAATCCGTATTTGAG (site ATCGATTCTCT)	2.41
ATCGGGACATGGACCGGTTTTCCCGGTAATCCGTATTTGTG (site ATCGGGACTCA)	0.972
ATCTAAGCATGGACCGGTTTTCCCGGTAATCCGTATTTGAG (site ATCAAAGCTCT)	0.792
ATCTAAGCATGGACCGGTTTTCCCGGTAATCCGTATTTGAG (site ATCCAAGCTCT)	1.93
ATCTAAGCATGGACCGGTTTTCCCGGTAATCCGTATTTGAG (site ATCGAAGCTCT)	0.367
ATCTAAGCATGGACCGGTTTTCCCGGTAATCCGTATTTGAG (site ATCTAAGCTCT)	2.16
ATCTATACATGGACCGGTTTTCCCGGTAATCCGTATTTGCC (site ATCTATACTGA)	1.23
ATCTATACATGGACCGGTTTTCCCGGTAATCCGTATTTGCC (site ATCTATACTGC)	0

Sequence	recombinant UMI read abundance (log10)
ATCTATACATGGACCGGTTTTCCCGGTAATCCGTATTTGCC (site ATCTATACTGG)	2.12
ATCTATACATGGACCGGTTTTCCCGGTAATCCGTATTTGCC (site ATCTATACTGT)	0.46
ATCTATACATGGACCGGTTTTCCCGGTAATCCGTATTTGTC (site ATCTATACTGA)	2.8
ATCTATACATGGACCGGTTTTCCCGGTAATCCGTATTTGTC (site ATCTATACTGC)	0
ATCTATACATGGACCGGTTTTCCCGGTAATCCGTATTTGTC (site ATCTATACTGG)	0
ATCTATACATGGACCGGTTTTCCCGGTAATCCGTATTTGTC (site ATCTATACTGT)	0
ATCTGATCATGGACCGGTTTTCCCGGTAATCCGTATTTGCT (site ATCTGATCTAG)	2.71
ATCTTGGCATGGACCGGTTTTCCCGGTAATCCGTATTTGCT (site ATCTTGGCTAG)	0
ATGAACTCATGGACCGGTTTTCCCGGTAATCCGTATTTGGG (site ATGAACTCTCC)	1.08
ATGAAGACATGGACCGGTTTTCCCGGTAATCCGTATTTGCT (site AGGAAGACTTG)	0
ATGAAGACATGGACCGGTTTTCCCGGTAATCCGTATTTGCT (site ATGAAGACTAG)	2.82
ATGAATACATGGACCGGTTTTCCCGGTAATCCGTATTTGCA (site AGGAAGACTTG)	0
ATGAATACATGGACCGGTTTTCCCGGTAATCCGTATTTGCA (site ATGAATACTTG)	2.21
ATGAATACATGGACCGGTTTTCCCGGTAATCCGTATTTGGC (site ATGAATACTGC)	1.69
ATGAATTCATGGACCGGTTTTCCCGGTAATCCGTATTTGGT (site ATGAATTCTAC)	2.57
ATGAGGACATGGACCGGTTTTCCCGGTAATCCGTATTTGGG (site ATGAGGACTCC)	0.399
ATGATAACATGGACCGGTTTTCCCGGTAATCCGTATTTGCA (site ATGATAACTTG)	2.08
ATGCAAGCATGGACCGGTTTTCCCGGTAATCCGTATTTGAG (site ATACAAGCTCT)	2.24
ATGCAAGCATGGACCGGTTTTCCCGGTAATCCGTATTTGAG (site ATCCAAGCTCT)	0.701
ATGCAAGCATGGACCGGTTTTCCCGGTAATCCGTATTTGAG (site ATGCAAGCTCT)	2.26
ATGCAAGCATGGACCGGTTTTCCCGGTAATCCGTATTTGAG (site ATTCAAGCTCT)	0.614
ATGCAAGCATGGACCGGTTTTCCCGGTAATCCGTATTTGGA (site ATGCAAGCTTC)	1.86
ATGCAGACATGGACCGGTTTTCCCGGTAATCCGTATTTGCA (site AGGAAGACTTG)	0
ATGCAGACATGGACCGGTTTTCCCGGTAATCCGTATTTGCA (site ATGCAGACTTG)	2.15
ATGCATGCATGGACCGGTTTTCCCGGTAATCCGTATTTGGT (site ATGCATGCTAC)	1.67
